The text below walks through data of paper PMC10609152, “Synthesis, Computational, and Anticancer In Vitro Investigations of Aminobenzylnaphthols Derived from 2-Naphtol, Benzaldehydes, and α-Aminoacids via the Betti Reaction” (Molecules, 2023).

For data set [1], the system named is BxPC-3 cells. The data set is described as follows: MTT assay, BxPC-3. As to conditions: Homo sapiens. The format is cell-based. The source says:
(§1) The MTT assay, also known as the 3-(4,5-dimethylthiazol-2-yl)-2,5-diphenyltetrazolium bromide assay, is a colorimetric assay used in biological and biomedical research to determine cell viability and proliferation. The MTT assay works on the assumption that live cells with active metabolism convert MTT into formazan crystals. These crystals are insoluble; however, they can be dissolved in an organic solvent such as DMSO to produce a colorful solution. The color intensity is proportional to the number of viable cells present in the culture.
(§2) BxPC-3, HT-29, and WI-38 cells were seeded on 96-well plates at a density of approximately 8–10 × 10^3 cells per 100 µL medium/well. Cells were allowed to grow for 24 h in controlled conditions (37 °C; 5% CO2). […] The experimental design included nontreated controls and blanks (wells without cells). Following 24 or 72 h of culture with the investigated compounds, 20 μL of MTT tetrazolium salt (5 mg/mL in PBS) was added to each well, and the plates were incubated for 3 h in a humidified environment (37 °C; 5% CO2). The solutions were withdrawn after incubation, and 100 μL of DMSO was added to dissolve the formazan complexes. Afterward, a spectrophotometer (microplate reader Power Wave XS BioTek Instruments, Inc., Winooski, VT, USA) reading at 570 nm was conducted. The experiments were carried out in duplicates.
(§3) GraphPad Prism 7 software was used to calculate the concentration of an MMZ compound reflecting a 50% growth inhibition (IC50). IC50 is defined as a concentration of tested compound that leads to a reduction in cell pool viability by 50% compared to the negative control (accepted as 100%). % cell viability=Absorbance value of treated cells−Absorbance value of blank/(Absorbance value of untreated cells−Absorbance value of blank)×100%
A general note: Tetrazolium dyes change colour on reduction, which living cells bring about.

The subject of data set [2] is BxPC-3 cells. The data set is described as follows: AO/EB double staining, BxPC-3. The conditions noted are these: BxPC-3, IC50 concentration, 72 h. Type of data set: cell-based. The protocol: (§4) BxPC-3 and HT-29 cells were plated at a density of 5 × 10^4 cells per well in 12-well plates. After 24 h, the cells were treated with MMZ-45AA and MMZ-140C at concentrations corresponding to their IC50 values obtained from the MTT assay. The cells were exposed to the compounds for 72 h. Following the incubation period, the cells were treated with a mixture of fluorochromes (100 µM AO/EB in a 1:1 ratio, v/v) for 5 min at 37 °C in the absence of light.
(§5) The staining technique allowed for the differentiation of viable, apoptotic, and necrotic cells based on their varying uptake of fluorescent DNA-binding dyes and the degree of chromatin condensation in the stained nuclei. A fluorescence microscope (Olympus BX60 F5, Olympus Optical Co., Ltd., Nagano, Japan) with an excitation wavelength of 360 nm was used to analyze the cells. The results were obtained from three independent experiments.

For data set [3], the system named is HT-29 cells. The data set is described as follows: AO/EB double staining, HT-29. The format is cell-based. The conditions noted are these: HT-29, IC50 concentration, 72 h. The protocol: as §4, §5
Data set [4] has as its system BxPC-3 cells. The data set is described as follows: Annexin V-FITC/PI flow cytometry, BxPC-3. Type of data set: cell-based. The conditions noted are these: Annexin V-FITC, BxPC-3, IC50 concentration, 72 h. The protocol:
(§6) The Annexin V-FITC Apoptosis Detection Kit was utilized to assess the induction of apoptosis following 72 h incubation with the tested MMZ compounds. BxPC-3 and HT-29 cells were plated at a density of 4 × 10^5 cells in 6-well plates. After 24 h, the cells were exposed to IC50 concentrations of MMZ-45AA and […], determined in the MTT assay. The experimental setup included a vehicle control with a final solvent concentration of less than 0.5% v/v DMSO, and cells treated with 2 µM SN-38 (the active metabolite of irinotecan) as a positive control. The cells were then incubated for an additional 72 h at 37 °C with 5% CO2.
(§7) Following the exposure period, the cells were trypsinized, transferred to cytometric tubes, and allowed to incubate for 40 min. Subsequently, they were centrifuged at 1400 rpm for 10 min at 4 °C. The supernatant was then removed, and the cell pellet was diluted in 1 mL PBS. The remaining steps were carried out according to the instructions provided by the manufacturer of the Annexin V-FITC Apoptosis Detection Kit. The results reported in this study were obtained from three independent experiments
A general note: Flow cytometry measures light scatter and fluorescence of single cells or particles in a stream.

In data set [5] the test system is HT-29 cells. The data set is described as follows: Annexin V-FITC/PI flow cytometry, HT-29. The format is cell-based. The conditions noted are these: Annexin V-FITC, HT-29, IC50 concentration, 72 h. How it is done:
as §6, §7

Data set [6] relates to HT-29 cells. The data set is described as follows: MTT assay, HT-29. Type of data set: cell-based. As to conditions: Homo sapiens.
Text: as §1, §2, §3

Data set [7] in a line: MTT cell viability, WI-38 normal fibroblasts. The conditions noted are these: human, WI-38 normal fibroblast cells, read-out: % cell viability ± SD; for viability at 72 h: WI-38, 72 h. The format is cell-based. How it is done: as §2, §3
The subject of another data set is A549. More on the design: method as in doi:10.31083/j.jmcm.2019.02.7181. The conditions noted are these: cited from earlier work.
A further data set concerns SW1573. More on the design: method as in doi:10.31083/j.jmcm.2019.02.7181. The conditions noted are these: cited from earlier work.
In a further data set the test system is HeLa. More on the design: method as in doi:10.31083/j.jmcm.2019.02.7181. As to conditions: cited from earlier work.
For the next data set, the system named is HBL100. Set-up: method as in doi:10.31083/j.jmcm.2019.02.7181. As to conditions: cited from earlier work.
The next data set concerns T47D. Set-up: method as in doi:10.31083/j.jmcm.2019.02.7181. The conditions noted are these: cited from earlier work.
The mark [8] stands for this setting: BxPC-3, 24-h MTT, independent experiment 1, read-out: IC50(1).
Setting [9] is: BxPC-3, 24-h MTT, independent experiment 2, read-out: IC50(2).
Setting [10] is: BxPC-3, 24-h MTT, read-out: Mean IC50 ± SD.
Where [11] appears, read: BxPC-3, 72-h MTT, independent experiment 1, read-out: IC50(1).
Setting [12] is: BxPC-3, 72-h MTT, independent experiment 2, read-out: IC50(2).
Setting [13] is: BxPC-3, 72-h MTT, read-out: Mean IC50 ± SD.
Where [14] appears, read: HT-29, 24-h MTT, independent experiment 1, read-out: IC50(1).
The mark [15] stands for this setting: HT-29, 24-h MTT, independent experiment 2, read-out: IC50(2).
Where [16] appears, read: HT-29, 24-h MTT, read-out: Mean IC50 ± SD.
[17] abbreviates: HT-29, 72-h MTT, independent experiment 1, read-out: IC50(1).
[18] abbreviates: HT-29, 72-h MTT, independent experiment 2, read-out: IC50(2).
The mark [19] stands for this setting: HT-29, 72-h MTT, read-out: Mean IC50 ± SD.

Like-named read-outs stand apart in the source and are kept apart here.

The term IC50 denotes the concentration needed to halve the response being measured. Consider `COC(=O)[C@H](Cc1ccccc1)N[C@@H](c1ccccc1)c1c(O)ccc2ccccc12` (mixture of isomers) [MMZ-45AA, (S,S) and (R,R)-methyl ((2-hydroxynaphthalen-1-yl)(phenyl)methyl)-L-phenylalaninate], for which the IC50 in the data set on BxPC-3 cells [1] (setting [8]) was found to be 58.1 µM; in the data set on BxPC-3 cells [1] (setting [9]), 38 µM; in the data set on BxPC-3 cells [1] (setting [10]), 48 ± 14.2 µM; in the data set with BxPC-3 cells [1] (setting [11]), 12.1 µM; with BxPC-3 cells [1] (setting [12]), 14.4 µM; in the data set on BxPC-3 cells [1] (setting [13]), 13.3 µM. Further, the IC50 in the data set on HT-29 cells [6] (setting [14]) worked out at 40.3 µM; with HT-29 cells [6] (setting [15]), 48.1 µM; with HT-29 cells [6] (setting [16]), 44.2 ± 5.49 µM; in the data set on HT-29 cells [6] (setting [17]) it was 12.2 µM; in the data set with HT-29 cells [6] (setting [18]), 11.9 µM; with HT-29 cells [6] (setting [19]), 12.1 ± 0.247 µM. Also, the “% of apoptotic cells” value turned out to be 21.9 ± 3.4% in the data set with BxPC-3 cells [2], 15.93 ± 3% in the data set with HT-29 cells [3], 38.7 ± 5.43% in the data set with BxPC-3 cells [4] and 24.23 ± 1.1% with HT-29 cells [5].
The term viability denotes a read-out of living cells in per cent, often relative to untreated cells. As to `COC(=O)[C@@H]1CCCN1[C@@H](c1ccccc1)c1c(O)ccc2ccccc12` (mixture of isomers) [MMZ-140C, (S,S) and (R,R)-methyl ((2-hydroxynaphthalen-1-yl)(phenyl)methyl)-L-prolinate], the viability at 24 h in data set [7] (WI-38, 24 h, compound at IC50 concentration obtained for HT-29 cells) came out at 82.9 ± 2.06%. Besides, the figures for the viability at 72 h in data set [7] (compound at IC50 concentration estimated for BxPC-3 cells) and in data set [7] (compound at IC50 concentration obtained for HT-29 cells) were 82.3 ± 6.96% and 84.2 ± 2.56%, respectively. Moreover, the IC50 came to 23.5 µM with BxPC-3 cells [1] (setting [8]); 36.8 µM in the data set on BxPC-3 cells [1] (setting [9]); 30.2 ± 9.39 µM in the data set with BxPC-3 cells [1] (setting [10]); 31.7 µM in the data set on BxPC-3 cells [1] (setting [11]); 33.2 µM in the data set with BxPC-3 cells [1] (setting [12]); 32.4 ± 1.09 µM with BxPC-3 cells [1] (setting [13]). Also, the IC50 in the data set on HT-29 cells [6] (setting [14]) turned out to be 35.5 µM; with HT-29 cells [6] (setting [15]) it was 40 µM; in the data set on HT-29 cells [6] (setting [16]), 37.8 ± 3.2 µM; in the data set on HT-29 cells [6] (setting [17]), 9.01 µM; in the data set with HT-29 cells [6] (setting [18]) it was 14.1 µM; in the data set with HT-29 cells [6] (setting [19]), 11.6 µM. Further, the “% of apoptotic cells” value is “No statistically significant changes” in the data set with BxPC-3 cells [2], 11.73 ± 0.38% with HT-29 cells [3], 33.1 ± 1.12% in the data set with BxPC-3 cells [4] and 15.13 ± 1% in the data set on HT-29 cells [5].
The GI50 is the concentration at which growth is held to half of that of the control. In the case of `N.N.[Cl][Pt][Cl]` [cisplatin], the GI50 in the data set with A549 is 4.9 µM.
Consider `Brc1ccc(C(c2cccc3ccccc23)N2CCCC2)cc1` (centres unmarked) [compound 14j], for which the GI50 in the data set with A549 is 7.9 µM.
Regarding `N#Cc1ccc(C(NCc2ccccc2)c2cccc3ccccc23)cc1` (centres unmarked) [compound 14t], the GI50 was 6.3 µM in the data set with SW1573, 4.1 µM in the data set with HeLa, 5 µM in the data set on HBL100 and 8.4 µM in the data set with T47D.
